“Also recorded” adds a separate entry of the source.
Legend:
E. coli ATCC 25922 [1] = test: Antibiotic susceptibility testing, growth curves by OD600; assay type: cell-based; settings: for effect on E. coli growth (OD600): 150 μM, M9 minimal media, compared to buffer control
Description: (§1) Bacterial strains (E. coli 29522 and E. coli X580) were grown from frozen glycerol stocks in LB media overnight at 37° C. with shaking. These starter cultures were used to inoculate fresh LB broth or M9 minimal media broth at an OD600 of 0.3. Each well of a 96-well plate was filled with 100 μL of sterile media (LB or M9). A sterile solution of RC-Obi or RO-Obi in LB or M9 media was added to the first well of each row and was serially diluted two-fold down the entire row creating a compound concentration gradient of 0.3-0.0025 mM.
(§2) Each well of the plate was then filled with 100 μL of the OD600 0.3 bacterial cell suspensions to give a final volume of 200 μL per well. The plates were incubated at 37° C. and the OD600 of each well was measured every 30 minutes over 24 hours. The plate was shaken briefly prior to each measurement to ensure an even cell suspension. All growth curves were generated in triplicate.

[2] = test system: 6× passaged E. coli ATCC 25922; test: Growth curves of 6× passaged E. coli in the presence of RC-Obi; assay type: cell-based; settings: 6 overnight cycles in LB broth with 0.25 mM RC-Obi, then varying concentrations in LB broth
Description: (§3) E. coli ATCC 25922 was passaged in LB broth through 6 overnight cycles in the presence of 0.25 mM RC-Obi β-lactone with fresh doses of antibiotic added every 18 hours for 6 days straight.

E. coli X580 = test: Growth curves of β-lactam hypersensitive E. coli X580; assay type: cell-based; settings: varying concentrations of RC-Obi
Description: as §1, §2, §3

E. coli ATCC 25922 [3] = test: Fluorescence microscopy of fixed cells stained with DAPI and FM 4-64fx; assay type: cell-based; settings: RC-Obi 0.1 mM, RO-Obi 0.5 mM, 2 hours at 37° C.
Description: The E. coli cells were also subjected to fluorescence microscopy after treatment with RC-Obi or RO-Obi. E. coli ATCC 29522 cells were grown in LB media for 8 hours at 37° C. then plated on agar media and incubated overnight at 37° C. A single colony was transferred into test tube with fresh LB media and allowed to grow to 0.3 OD600 at 37° C. Cells were diluted by a factor of 10, allowed to grow to OD600 0.3 again. Aliquots of the cell suspension (2 mL each) were treated with RC-Obi (0.1 mM), RO-Obi (0.5 mM), ampicillin (50 μg/mL), or buffer control and incubated for 2 hours at 37° C. Culture aliquots of 250 μL were then used for staining and fluorescence microscopy. Cell membranes and DNA were labeled with the fixable dyes FM 4-64fx and DAPI, respectively, according to the manufacturer's instructions. Cells were fixed with 2.6% paraformaldehyde+0.008% glutaraldehyde as previously described. Fixed cells were imaged on 1% agarose pads with an Olympus BX51 microscope equipped with a CCD OrcaERG camera (Hamamatsu Photonics, Bridgewater, N.J.), an Olympus Plan N 100X/1.25 Oil Ph3 objective, and an X-Cite 120 LED light source (Lumen Dynamics). Nikon elements were used for image capture using the DAPI and rhodamine filter sets from Chroma. Images were processed using NIS—Elements Basic Research Microscope Imaging Software (Nikon Corp.).

[4] = reported; cited from earlier work
Streptococcus pneumonia = settings: reported; cited from earlier work
[5] = previous studies; cited from earlier work

Structure (SMILES): O=C(N[C@@H]1C(=O)O[C@@H]1Cc1ccc([N+](=O)[O-])cc1)c1cccc(O)c1O [RC-Obi, obafluorin]
- effect on E. coli growth (OD600) (E. coli ATCC 25922 [1]): inhibited the growth of E. coli; also recorded: halted E. coli growth
- time until growth recovered to normal levels (E. coli ATCC 25922 [1]; after treatment with RC-Obi): ~10 h
- effect on E. coli growth (OD600) at various concentrations (E. coli ATCC 25922 [1]; various concentrations of RC-Obi, or buffer control): inhibited the growth of E. coli in a dose-dependent manner
- susceptibility after passaging [2]: still susceptible to the antibiotic
- sensitivity compared to E. coli ATCC 29522 (E. coli X580): enhanced sensitivity and slower growth recovery
- cell clumping phenotype (E. coli ATCC 25922 [3]): induced a cell clumping phenotype; also recorded: severe cell clumping
- antibacterial activity [4]: broad-spectrum antibacterial activity
- efficacy in murine septicemia model (Streptococcus pneumonia): demonstrated efficacy
- hydrolysis in aqueous solutions [5]: hydrolyzes rapidly

Structure (SMILES): O=C(NC(C(=O)O)C(O)Cc1ccc([N+](=O)[O-])cc1)c1cccc(O)c1O (centres unmarked) [RO-Obi]
- effect on E. coli growth (OD600) (E. coli ATCC 25922 [1]): minimal effect on E. coli growth
- cell clumping phenotype (E. coli ATCC 25922 [3]): moderate cell clumping

Source: patent US10655153B2, “Chemoenzymatic synthesis of peptide beta-lactones and beta-hydroxy acids” (Washington University, priority 2017, dated 2020)
